Results reported in US10899754B2, “Modulators of indoleamine 2,3-dioxygenase” (GLAXOSMITHKLINE INTELLECTUAL PROPERTY DEVELOPMENT LIMITED, priority 2016, dated 2021).

Legend:
Assay type in all cases: cell-based
[1] = system: human epithelial HeLa cells; assay: HeLa cytotoxicity assay (CellTiter-Glo); settings: pCC50
Outline: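 Read-out is CellTiter-Glo luminescence after 2 days at 37 °C, on IFN-γ-stimulated (10 nM) HeLa cells seeded at 5,000/well with compounds in 11-point 3-fold dose series. pCC50 from four-parameter curve fit; wells without cells set 100% cytotoxicity, stimulated cells with DMSO set 0%.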

[2] = system: human peripheral blood mononuclear cells (PBMC); assay: PBMC cytotoxicity assay (CellTiter-Glo); settings: 2 days, pCC50
Outline: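 % cytotoxicity was taken from CellTiter-Glo luminescence, using wells without cells and stimulated DMSO wells as references, and fitted by four-parameter curve to give XC50. Cells were human PBMC at 50,000 per well, activated with 100 ng/ml IFN-γ plus 50 ng/ml LPS. Incubation with 11-point, 3-fold dilution series ran for 2 days at 37 °C.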

[3] = molecular target: T1, indoleamine 2, 3-dioxygenase (IDO1) (Homo sapiens, UniProt P14902); assay: IDO1 HeLa RapidFire MS assay (kynurenine detection by mass spectrometry); parameters: to induce the expression of indoleamine 2, 3-dioxygenase (IDO1); settings: HeLa cells, pIC50, read-out: IDO1_HELA_PXC50 (converted)
Outline: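 Compound potency reported as pIC50 from kynurenine/internal-standard ratio (RapidFire MS) in supernatant of IFN-γ-induced (10 nM) HeLa cells, 5,000 per well, after 2 days' treatment with 11-point dilutions. Cytotoxicity in the same format by luminescent ATP detection, reported as pCC50.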

[4] = molecular target: T1, indoleamine 2, 3-dioxygenase (IDO1); assay: IDO1 PBMC RapidFire MS assay (kynurenine detection by mass spectrometry); parameters: to induce the expression of indoleamine 2, 3-dioxygenase (IDO1); host or cells: human PBMC stimulated with IFN-gamma and LPS; settings: human PBMC stimulated with IFN-γ and LPS, 2 days, pIC50, read-out: PBMC PXC50 (converted)
Outline: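 Kynurenine output, read by RapidFire mass spectrometry as ratio to an internal standard, was measured after 2-day compound exposure (11-point, 3-fold dilutions) of human PBMCs induced with 100 ng/ml IFN-γ and 50 ng/ml LPS. Cell viability tracked alongside via ATP luminescence; XC50 from curve fitting.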

T1 sequence (P14902 whole entry): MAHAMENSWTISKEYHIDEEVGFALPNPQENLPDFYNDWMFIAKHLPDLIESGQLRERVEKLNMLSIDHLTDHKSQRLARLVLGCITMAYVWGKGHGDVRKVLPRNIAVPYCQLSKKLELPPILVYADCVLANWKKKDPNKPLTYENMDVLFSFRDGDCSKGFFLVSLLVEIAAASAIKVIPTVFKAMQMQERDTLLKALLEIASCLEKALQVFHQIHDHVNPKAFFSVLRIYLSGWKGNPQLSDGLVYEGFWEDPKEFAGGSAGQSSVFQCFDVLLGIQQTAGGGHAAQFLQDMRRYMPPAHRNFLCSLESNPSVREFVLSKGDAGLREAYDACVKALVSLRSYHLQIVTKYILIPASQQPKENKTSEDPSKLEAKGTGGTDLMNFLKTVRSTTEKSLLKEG

| Compound | HELA_IDO1_TOX_PXC50 [1] | PBMC TOX PXC50 [2] | IC50 [3] | IC50 [4] |
| --- | --- | --- | --- | --- |
| CC(C)CN(c1ccc(-c2ccccc2C(=O)O)cc1Nc1nc(C(F)(F)F)ns1)[C@H]1CC[C@H](O)CC1 [Example 112, 4′-(((1r,4r)-4-hydroxycyclohexyl) (isobutyl)amino)-3′-((3-(trifluoromethyl)-1,2,4-thiadiazol-5-yl)amino)-[1,1′-biphenyl]-2-carboxylic Acid] | <5 | 6.1 | 15.8 nM | 7.94 nM |
| COCCc1nnc(Nc2cc([C@H](C)CC(=O)O)ccc2N(CC(C)C)CC(C)C)[nH]1 [example 203, (3R)-3-{4-[bis(2-methylpropyl)amino]-3-{[5-(2-methoxyethyl)-4H-1,2,4-triazol-3-yl]amino}phenyl}butanoic acid] | <5 | <5 | 63.1 nM | 31.6 nM |
| CC(C)CN(c1ccc(C(C)(C)CC(=O)O)cc1Nc1ccc(Cl)cn1)C1CCOCC1 [Example 4, 3-(3-((5-chloropyridin-2-yl)amino)-4-(isobutyl(tetrahydro-2H-pyran-4-yl)amino)phenyl)-3-methylbutanoic Acid] | <5 | <5 | 6.31 nM | 3.98 nM |
| CC(C)CN(c1ccc([C@H](C)CC(=O)O)cc1Nc1cccc(Cl)n1)C1CCCCC1 [example 169, (3R)-3-{3-[(6-chloropyridin-2-yl)amino]-4-[cyclohexyl(2-methylpropyl)amino]phenyl}butanoic acid] | <5 | <5 | 25.1 nM | 7.94 nM |
| CC(C)CN(c1ccc([C@H](C)CC(=O)O)cc1Nc1ccc(Cl)cn1)C1CCCCC1 [Example 75, (R)-3-(3-((5-chloropyridin-2-yl)amino)-4-(cyclohexyl(isobutyl)amino)phenyl)butanoic Acid] | <5 | <5 | 3.16 nM | 1.58 nM |
| CC(C)CN(CC(C)C)c1ccc(C2CC2C(=O)O)cc1Nc1nc(Cl)ns1 (stereo not drawn) [example 177, (1R*,2R**)-2-{4-[bis(2-methylpropyl)amino]-3-[(3-chloro-1,2,4-thiadiazol-5-yl)amino]phenyl}cyclo-propane-1-carboxylic acid] | <5 | <5 | 158 nM | 31.6 nM |
| CC(C)CN(CC(C)C)c1ccc(-c2ccccc2C(=O)O)cc1Nc1nc2ccccc2[nH]1 [example 297, 3′-[(1H-1,3-benzodiazol-2-yl)amino]-4′-[bis(2-methylpropyl)amino]-[1,1′-biphenyl]-2-carboxylic acid] | <5 | <5 | 50.1 nM | 20 nM |
| CC(C)CN(c1ccc([C@H](C)CC(=O)O)cc1Nc1nnc(C(C)C)[nH]1)C1CCOCC1 [example 212, (3R)-3-{4-[(2-methylpropyl)(oxan-4-yl)amino]-3-{[5-(propan-2-yl)-4H-1,2,4-triazol-3-yl]amino}phenyl}butanoic acid] | <5 | <5 | 200 nM | 63.1 nM |
| CC(C)CN(CC(C)C)c1ccc(-c2ccccc2C(=O)O)cc1Nc1nc(C(F)(F)F)ns1 [Example 90, 4′-(diisobutylamino)-3′-((3-(trifluoromethyl)-1,2,4-thiadiazol-5-yl)amino)-[1,1′-biphenyl]-2-carboxylic Acid] | <5 | <5 | 25.1 nM | 10 nM |
| CC(C)CN(c1ccc([C@H](C)CC(=O)O)cc1NC1CCC1)C1CCCCC1 [example 181, (3R)-3-[3-(cyclobutylamino)-4-[cyclohexyl(2-methylpropyl)amino]phenyl]butanoic acid] | <5 | <5 | 316 nM | 158 nM |
| CC[C@H](CC(=O)O)c1ccc(N(CC(C)C)C2CCCCC2)c(Nc2nc(Cl)ns2)c1 [Example 42] | <5 | <5 | 5.01 nM | 0.501 nM |
| CC(C)CN(CC(C)C)c1ccc(C(C)CC(=O)O)cc1-n1nnnc1N (centres unmarked) [example 167, 3-[3-(5-amino-1H-1,2,3,4-tetrazol-1-yl)-4-[bis(2-methylpropyl)amino]phenyl]butanoic acid] | <5 | <5 | > 10000 nM | 6310 nM |
| CC(C)CN(c1ccc(C(C)CC(=O)O)cc1NC1=N[C@@H](C(F)(F)F)CS1)C1CCCCC1 (stereo partly drawn) [example 154, 3-{4-[cyclohexyl(2-methylpropyl)amino]-3-{[(4S)-4-(trifluoromethyl)-4,5-dihydro-1,3-thiazol-2-yl]amino}phenyl}butanoic acid] | <5 | <5 | 31.6 nM | 20 nM |
| Cc1nsc(Nc2cc(-c3ccccc3C(=O)O)ccc2N(CC(C)C)CC(C)C)n1 [example 286, 4′-[bis(2-methylpropyl)amino]-3′-[(3-methyl-1,2,4-thiadiazol-5-yl)amino]-[1,1′-biphenyl]-2-carboxylic acid] | <5 | <5 | 501 nM | 200 nM |
| CC(C)CN(CC(C)C)c1ccc([C@H](C)CC(=O)NS(C)(=O)=O)cc1Nc1nc(C(F)(F)F)ns1 [Example 109, (R)-3-(4-(diisobutylamino)-3-((3-(trifluoromethyl)-1,2,4-thiadiazol-5-yl)amino)phenyl)-N-(methylsulfonyl)butanamide] | <5 | <5 | 31.6 nM | 10 nM |
| COc1ccc2[nH]c(Nc3cc(-c4ccccc4C(=O)O)ccc3N(CC(C)C)C3CCCCC3)nc2c1 [example 287, 4′-[cyclohexyl(2-methylpropyl)amino]-3′-[(5-methoxy-1H-1,3-benzodiazol-2-yl)amino]-[1,1′-biphenyl]-2-carboxylic acid] | <5 | <5 | 7.94 nM | 7.94 nM |
| CC(C)CN(c1ccc(C(C)OCC(=O)O)cc1Nc1nc2ccccc2o1)C1CCCCC1 (centres unmarked) [example 170, 2-(1-{3-[(1,3-benzoxazol-2-yl)amino]-4-[cyclohexyl(2-methylpropyl)amino]phenyl}ethoxy)acetic acid] | <5 | <5 | 501 nM | 316 nM |
| CC(C)CN(c1ccc(C(C)CC(=O)O)cc1NC1=N[C@@H](C)CO1)C1CCCCC1 (stereo partly drawn) [example 152, 3-{4-[cyclohexyl(2-methylpropyl)amino]-3-{[(4S)-4-methyl-4,5-dihydro-1,3-oxazol-2-yl]amino}phenyl}butanoic acid] | 5.4 | <5 | 3160 nM | 3160 nM |
| CC(C)CN(c1ccc(-c2ccccc2C(=O)O)cc1Nc1nc(C(F)(F)F)ns1)C1CCN(c2nc(C(F)(F)F)ns2)CC1 [Example 92, 4′-(isobutyl(1-(3-(trifluoromethyl)-1,2,4-thiadiazol-5-yl)piperidin-4-yl)amino)-3′-((3-(trifluoromethyl)-1,2,4-thiadiazol-5-yl)amino)-[1,1′-biphenyl]-2-carboxylic Acid] | <5 | 6.1 | 5.01 nM | 1 nM |
| CC(C)CN(c1ccc(-c2cccnc2C(=O)O)cc1Nc1nc(C(F)(F)F)ns1)C1CCOCC1 [example 269, 3-{4-[(2-methylpropyl)(oxan-4-yl)amino]-3-{[3-(trifluoromethyl)-1,2,4-thiadiazol-5-yl]amino}phenyl}pyridine-2-carboxylic acid] | <5 | <5 | 316 nM | 31.6 nM |
| CC(C)CN(c1ccc(-c2ccccc2C(=O)O)cc1Nc1nc2ccccc2o1)C1CCOCC1 [example 291, 3′-[(1,3-benzoxazol-2-yl)amino]-4′-[(2-methylpropyl)(oxan-4-yl)amino]-[1,1′-biphenyl]-2-carboxylic acid] | <5 | <5 | 100 nM | 126 nM |
| CC(C)CN(c1ccc(-c2cnccc2C(=O)O)cc1Nc1nc2ccccc2o1)C1CCCCC1 [example 289, 3-{3-[(1,3-benzoxazol-2-yl)amino]-4-[cyclohexyl(2-methylpropyl)amino]phenyl}pyridine-4-carboxylic acid] | <5 | <5 | 1260 nM | 501 nM |
| CC(C)CN(c1ccc(-c2cccnc2C(=O)O)cc1Nc1nc(C(F)(F)F)ns1)C1CCCCC1 [Example 88, 3-(4-(cyclohexyl(isobutyl)amino)-3-((3-(trifluoromethyl)-1,2,4-thiadiazol-5-yl)amino)phenyl)picolinic Acid] | <5 | <5 | 5.01 nM | 3.98 nM |
